Experimental data reported in paper PMC6838110 (Nature Communications, 2019).

Key:
FaDu ATM KO cells = assay: Clonogenic survival (colony formation assay); type: cell-based; conditions: Homo sapiens
Protocol: (§1) Graphs represent percentage viable cells ± SD following 7 days' treatment relative to DMSO vehicle-treated controls from one representative experiment of at least three independent experiments. […] Mean pGI50 (-log [GI50]) ± SEM, geometric mean GI50, number of experimental repeats (n) and 95% confidence interval are described. C) Colony formation assay was performed on FaDu and A549 ATM KO and WT cells treated with increasing concentrations of olaparib. Graphs represent percentage surviving fraction of colonies ± SD following 10- 14 days' treatment relative to DMSO vehicle-treated control from one representative experiment of three independent experiments. […] Optimized image algorithms were used to evaluate phenotypic response s using nuclear staining with Hoechst (cell cycle, micronuclei, nuclear fragmentation ), as well as to quantify the response of DNA damage response markers (foci numbers and total signal […] SDS-PAGE and Western blotting of samples Protein lysates were generated by scraping cells in radioimmunoprecipitation assay […] and protease and phosphatase inhibitor tablets (Roche) following compound treatments at indicated time points. Protein concentration was determined using the BCA protein assay kit (ThermoFisher). Proteins were separated by SDS -PAGE on NuPAGE® 4-12% […] membranes using the iBlot ® dry blotting system (ThermoFisher). […]

HBCx-17 TNBC PDX = assay: PDX efficacy study; type: in vivo, mice; conditions: olaparib 100 mg kg−1 qd single agent
Protocol: (§2) Immunocompromised SCID (C.B-17/IcrHan®Hsd-Prkdc^scid) or Hsd:Athymic Nude-Foxn1^nu female mice (Envigo) were used for tumour implantation. […] When dosed twice daily, the time between the morning and evening doses was 8 h. Targeted irradiation of 2 Gy was delivered over 2 min daily over the first 5 days of treatment. Liposomal doxorubicin (Doxoves) was diluted in physiological saline and intravenously dosed at 2.5 or 5 mg kg^−1 once per week. Olaparib was formulated in 10% DMSO/30% Kleptose and orally dosed at 100 mg kg^−1 once daily. […] Statistical significance was evaluated using a one-tailed t-test. All in vivo studies complied with all relevant ethical regulations for animal testing and research, followed AstraZeneca’s global bioethics policy and received ethical approval from the AstraZeneca ethical committee. HBCx-17 PDX study was carried out at XenTech, France in accordance with French regulatory legislation concerning the protection of laboratory animals. CTG-703, CTG-0828 and CTG-0149 PDX studies were carried out at Champions Oncology, Inc., USA in accordance to the guidelines of the Institutional Animal Care and Use Committee (IACUC) of Champions Oncology and the USA regulatory legislation. CDX and OV2022 PDX studies were conducted in the UK in accordance with UK Home Office legislation, the Animal Scientific Procedures Act 1986 and the Home Office project licences 70/8839, 70/8894 and P0EC1FFDF. […]
(§3) SCID mice were surgically implanted subcutaneously with tumour fragments from donor mice. Tumours were measured (length x width) by bilateral Vernier calliper measurements and tumour volume calculated using Mousetrap software. Mice were randomized into […]
treatment groups when mean tumour volume reached ~0.2 cm 3.

CTG-0828 NSCLC PDX = assay: PDX efficacy study; type: in vivo, mice; conditions: olaparib single agent
Protocol: as §2, §3
(§4) treatment groups when mean tumour volume reached ~0.2 cm 3. AZD7648 was formulated in 0.5% hydroxypropyl methylcellulose (HPMC)/0.1% Tween80 (HPMC/T) and orally dosed (4–100 mg/kg). When dosed twice daily (bid), the time between the morning and evening doses was 8 hours. Targeted irradiation of 2 Gy was delivered over 2 minutes daily over the first 5 days of treatment. Liposomal doxorubicin (Doxoves) was diluted in physiological saline and intravenously dosed at 2.5 or 5 mg/kg once per week. Olaparib was formulated in 10% DMSO/30% Kleptose and orally dosed at 100 mg/kg once daily.
(§5) HPMC/T. Tumour growth inhibition from start of treatment was assessed by co mparison of the mean change in tumour volume for the control and treated groups, using the Mousetrap application and represented as tumour growth inhibition (TGI). Statistical significance was evaluated using a one-tailed t-test. HBCx-17 PDX study was carried out at XenTech, France in accordance with French regulatory legislation concerning the protection of laboratory animals. CTG-703, CTG-0828 and CTG-0149 PDX studies were carried out at Champions Oncology, Inc., USA in accordance to the guidelines of the Institutional Animal Care and Use Committee (IACUC) of Champions Oncology and the USA regulatory legislation. CDX and OV2022 PDX studies were conducted in the UK in accordance with UK Home Office legislation, the Animal Scientific Procedures Act 1986, and AstraZeneca’s global bioethics policy. Experimental details are outlined in Home […]
(§6) Blood samples were taken via venipuncture of the tail vein. Whole blood was mixed 1: 5 with PBS and centrifuged at 1500g for 3 minutes at 4°C, and the plasma was extracted […]
(§7) was prepared using an appropriate dilution factor and compared against an 11-point standard calibration curve (1–10,000 nM) prepared in DMSO and spiked into bl ank plasma. Acetonitrile (100 µL) was added with the internal standard, followed by centrifugation at 3000 rpm for 10 minutes. Supernatant (50 µL) was then diluted in 300 µL water and analysed with ultra-performance liquid chromatography–tandem mass […]
(§8) Xenograft sample preparation
(§9) Animals were euthanized and tumour samples snap frozen in liquid nitrogen or fixed in formalin and paraffin embedded for subsequent analysis. Tumour pieces were lysed in […]

OV2022 ovarian PDX = assay: PDX efficacy study; type: in vivo, mice; conditions: olaparib single agent
Protocol: as §2, §3, §4, §5, §6, §7, §8, §9

CTG-703 ovarian PDX = assay: PDX efficacy study; type: in vivo, mice; conditions: olaparib single agent
Protocol: as §2, §3, §4, §5, §6, §7, §8, §9

CTG-0149 H&N PDX = assay: PDX efficacy study; type: in vivo, mice; conditions: olaparib single agent
Protocol: as §2, §3, §4, §5, §6, §7, §8, §9

FaDu ATM KO xenografts = assay: Xenograft efficacy study with olaparib; type: in vivo, mice; conditions: continuous olaparib 100 mg kg−1 qd single agent
Protocol: Immunocompromised SCID (C.B-17/IcrHan®Hsd-Prkdc^scid) or Hsd:Athymic Nude-Foxn1^nu female mice (Envigo) were used for tumour implantation. […] When dosed twice daily, the time between the morning and evening doses was 8 h. Targeted irradiation of 2 Gy was delivered over 2 min daily over the first 5 days of treatment. Liposomal doxorubicin (Doxoves) was diluted in physiological saline and intravenously dosed at 2.5 or 5 mg kg^−1 once per week. Olaparib was formulated in 10% DMSO/30% Kleptose and orally dosed at 100 mg kg^−1 once daily. […] Statistical significance was evaluated using a one-tailed t-test. […]
Tumours were measured (length x width) by bilateral Vernier calliper measurements and tumour volume calculated using Mousetrap software. […]
HPMC/T. Tumour growth inhibition from start of treatment was assessed by co mparison of the mean change in tumour volume for the control and treated groups, using the Mousetrap application and represented as tumour growth inhibition (TGI). Statistical significance was evaluated using a one-tailed t-test. […]
as §7, with “Acetonitrile (100 µL) was added with the internal standard, followed by centrifugation at 3000 rpm for 10 minutes.” left out

[1] = test system: FaDu and A549 ATM KO cells; assay: Colony formation assay, olaparib, ATM KO versus WT isogenic pairs; type: cell-based, human; conditions: olaparib single agent
Protocol: as §1

In the case of `O=C(c1cc(Cc2n[nH]c(=O)c3ccccc23)ccc1F)N1CCN(C(=O)C2CC2)CC1` [olaparib], the IC50 (FaDu ATM KO cells) is reported as about 100 nM, the tumour regression (HBCx-17 TNBC PDX) is reported as 42% and the “tumours regressed on day 70 (last day of dosing)” value (HBCx-17 TNBC PDX) is reported as “four tumours out of nine”. The “tumours regressed on day 70 (last day of dosing)” value (HBCx-17 TNBC PDX; listed as Olaparib) was 4/9, the “sensitivity of the model to olaparib” value (CTG-0828 NSCLC PDX) was “insensitive” and the TGI (OV2022 ovarian PDX) was 65%. The TGI (CTG-703 ovarian PDX) was 100%, the “sensitivity of the model to olaparib” value (CTG-0149 H&N PDX) was “insensitive” and the TGI (FaDu ATM KO xenografts) was 50%. For the same molecule, the “greater sensitivity of ATM KO cells compared with isogenic WT cells” value [1] was over 10 fold.
